What was measured:
[1] = system: poultry red mite (D. gallinae); test: Efficacy of Fluralaner in medicated drinking water against poultry red mite infestation of laying hens; type: in vivo, Dermanyssus gallinae; details: for % Inhibition of mites 24 hours after infestation on day 1 / % Inhibition of mites 24 hours after infestation on day 5 / % Inhibition of mites 24 hours after infestation on day 8 / % Inhibition of mites 24 hours after infestation on day 12 / % Inhibition of mites 24 hours after infestation on day 15 / % Inhibition of mites 24 hours after infestation on day 19 / % Inhibition of mites 24 hours after infestation on day 22 / % Mortality of mites 24 hours after infestation on day 1 / % Mortality of mites 24 hours after infestation on day 5 / % Mortality of mites 24 hours after infestation on day 8 / % Mortality of mites 24 hours after infestation on day 12 / % Mortality of mites 24 hours after infestation on day 15 / % Mortality of mites 24 hours after infestation on day 19 / % Mortality of mites 24 hours after infestation on day 22: laying hens
Text: The drinking water used was regular tap water not comprising a significant amount of oxidising sanitizer, and no vitamin E was used in the concentrated Fluralaner solution used. Experimental animals were chickens, particularly laying hens of about 30 weeks old. These were housed in a standard poultry house. Apparently healthy birds were assigned in a random way to treatment groups kept separately, and labelled individually. The birds were kept under natural light, and were given several days for acclimatization; drinking water consumption in each group was measured on three days prior to administration to calculate the average daily water consumption. Medicated water was prepared by diluting a concentrated Fluralaner solution (10 mg/ml) to the desired concentration of Fluralaner in regular tap water (hypochlorite <0.5 ppm). […] Groups A-D (n=6) were treated with doses of 2, 1 or 0.5 mg Fluralaner/kg BW once, or with 1 mg Fluralaner/kg BW in a repeated dose of 0.5 mg/kg BW on 2 occasions, 7 days apart. On day 0 (and group D additionally on day 7), the hens in groups A-D received Fluralaner via medicated drinking water. Group E received un-medicated drinking water ad libitum. The dose to be administered was calculated based on average body weights of each treatment group, measured one day before treatment (day −1, day 6). A concentrated Fluralaner solution was diluted in the drinking water to prepare medicated drinking water ready for consumption, via the following dosing regimen: • The volume of medicated water offered per group on day 0 (group D also on day 7) was approximately 50% of the calculated mean daily water intake measured previously in the respective group in order to ensure consumption of the full dose. • Once all medicated water was consumed the other 50% volume of the mean daily water intake was supplied as unmedicated tap water in the same drinker. On days 1, 5, 8, 12, 15, 19 and 22, four of the six hens per group were infested with approximately 200 vital, D. gallinae mites (unfed nymphs and adults that had starved before infestation for 7 days). From each infested hen approximately 25 engorged mites were collected after a few hours of presence in the animal box, next they were incubated for approximately 24 hours, after which their status was observed. The dead, damaged and/or live mites were counted visually using a binocular. Mites were classified as dead if no movement was determined or mites lay in a dorsal position. Mites were classified as damaged if their movement was uncoordinated. The Mite Mortality and Mite Inhibition percentage was calculated for each treated group in comparison to a non-treated negative control group.

[2] = Tolerance of Fluralaner in laying hens (Example 1); type: in vivo, chickens; details: 0.5-2 mg/kg BW via medicated drinking water
Experimental: Experimental animals were chickens, particularly laying hens of about 30 weeks old. These were housed in a standard poultry house. Apparently healthy birds were assigned in a random way to treatment groups kept separately, and labelled individually. The birds were kept under natural light, and were given several days for acclimatization; drinking water consumption in each group was measured on three days prior to administration to calculate the average daily water consumption. Medicated water was prepared by diluting a concentrated Fluralaner solution (10 mg/ml) to the desired concentration of Fluralaner in regular tap water (hypochlorite <0.5 ppm). […]
The dose to be administered was calculated based on average body weights of each treatment group, measured one day before treatment (day −1, day 6). A concentrated Fluralaner solution was diluted in the drinking water to prepare medicated drinking water ready for consumption, via the following dosing regimen: • The volume of medicated water offered per group on day 0 (group D also on day 7) was approximately 50% of the calculated mean daily water intake measured previously in the respective group in order to ensure consumption of the full dose. • Once all medicated water was consumed the other 50% volume of the mean daily water intake was supplied as unmedicated tap water in the same drinker.

[3] = system: Northern fowl mite (O. sylviarum); test: Efficacy of Fluralaner in medicated drinking water against Northern fowl mite infestation of laying hens; type: in vivo, Ornithonyssus sylviarum
Experimental: No vitamin E was present in the concentrated Fluralaner solution used to prepare the medicated drinking water. The effectivity of an oral dosing regimen of Fluralaner was tested by administering medicated drinking water (via gavage) to laying hens, in 2 repeated doses of 0.25, 0.5 or 1.0 mg/kg body weight, administered 7 days apart, and challenging them with infestation by Northern fowl mites, via source birds and natural infestation. The birds were kept in separate pens, at 11 birds per pen. The statistical analysis of results was based on mite count from each bird in the study, using pen as a random factor in the model, and mite counts were performed and recorded for individual birds. Mite vent count reduction of the treated groups compared to the control group was the primary efficacy criterion.

[4] = Residues and withdrawal time in treated birds; type: in vivo; details: treated layer birds, oral uptake
[5] = Group A, 2 mg/kg BW once, drinking water
[6] = Group B, 1 mg/kg BW once, drinking water
[7] = Group C, 0.5 mg/kg BW once, drinking water
[8] = Group D, 1 (2 × 0.5) mg/kg BW, days 0 and 7, drinking water

In the case of Cc1cc(C2=NOC(c3cc(Cl)cc(Cl)c3)(C(F)(F)F)C2)ccc1C(=O)NCC(=O)NCC(F)(F)F (centres unmarked) [Fluralaner], the “% Inhibition of mites 24 hours after infestation on day 1” value [1, 5] is reported as 100%, the “% Inhibition of mites 24 hours after infestation on day 5” value (“% Inhibition … on day 5” for short) [1, 5] is reported as 100% and the “% Inhibition of mites 24 hours after infestation on day 8” value (“% Inhibition … on day 8” for short) [1, 5] is reported as 100%. The “% Inhibition of mites 24 hours after infestation on day 12” value (“% Inhibition … on day 12” for short) [1, 5] was 100%, the “% Inhibition of mites 24 hours after infestation on day 15” value (from here on “% Inhibition … on day 15”) [1, 5] was 81% and the “% Inhibition of mites 24 hours after infestation on day 19” value (from here on “% Inhibition … on day 19”) [1, 5] was 14%. The “% Inhibition of mites 24 hours after infestation on day 22” value (from here on “% Inhibition … on day 22”) [1, 5] was 0%, the “% Mortality of mites 24 hours after infestation on day 1” value [1, 5] was 100% and the “% Mortality of mites 24 hours after infestation on day 5” value (from here on “% Mortality … on day 5”) [1, 5] was 100%. The “% Mortality of mites 24 hours after infestation on day 8” value (“% Mortality … on day 8” below) [1, 5] was 100%, the “% Mortality of mites 24 hours after infestation on day 12” value (shortened to “% Mortality … on day 12”) [1, 5] was 100% and the “% Mortality of mites 24 hours after infestation on day 15” value (from here on “% Mortality … on day 15”) [1, 5] was 77%. For the same compound, the “% Mortality of mites 24 hours after infestation on day 19” value (“% Mortality … on day 19” for short) [1, 5] was 1%, the “% Mortality of mites 24 hours after infestation on day 22” value (“% Mortality … on day 22” for short) [1, 5] was 0% and the “% Inhibition of mites 24 hours after infestation on day 1” value [1, 6] was 100%. The “% Inhibition … on day 5” value [1, 6] was 100%, the “% Inhibition … on day 8” value [1, 6] was 100% and the “% Inhibition … on day 12” value [1, 6] was 95%. For the same compound, the “% Inhibition … on day 15” value [1, 6] was 81%, the “% Inhibition … on day 19” value [1, 6] was 3% and the “% Inhibition … on day 22” value [1, 6] was 0%. For the same compound, the “% Mortality of mites 24 hours after infestation on day 1” value [1, 6] was 100%, the “% Mortality … on day 5” value [1, 6] was 100% and the “% Mortality … on day 8” value [1, 6] was 100%. The “% Mortality … on day 12” value [1, 6] was 94%, the “% Mortality … on day 15” value [1, 6] was 77% and the “% Mortality … on day 19” value [1, 6] was 2%. The “% Mortality … on day 22” value [1, 6] was 0%, the “% Inhibition of mites 24 hours after infestation on day 1” value [1, 7] was 100% and the “% Inhibition … on day 5” value [1, 7] was 100%. For the same compound, the “% Inhibition … on day 8” value [1, 7] was 100%, the “% Inhibition … on day 12” value [1, 7] was 75% and the “% Inhibition … on day 15” value [1, 7] was 19%. For the same compound, the “% Inhibition … on day 19” value [1, 7] was 0%, the “% Inhibition … on day 22” value [1, 7] was 0% and the “% Mortality of mites 24 hours after infestation on day 1” value [1, 7] was 100%. For the same compound, the “% Mortality … on day 5” value [1, 7] was 100%, the “% Mortality … on day 8” value [1, 7] was 97% and the “% Mortality … on day 12” value [1, 7] was 55%. For the same compound, the “% Mortality … on day 15” value [1, 7] was 15%, the “% Mortality … on day 19” value [1, 7] was 0% and the “% Mortality … on day 22” value [1, 7] was 0%. For the same compound, the “% Inhibition of mites 24 hours after infestation on day 1” value [1, 8] was 100%, the “% Inhibition … on day 5” value [1, 8] was 100% and the “% Inhibition … on day 8” value [1, 8] was 100%. For the same compound, the “% Inhibition … on day 12” value [1, 8] was 100%, the “% Inhibition … on day 15” value [1, 8] was 99% and the “% Inhibition … on day 19” value [1, 8] was 66%. The “% Inhibition … on day 22” value [1, 8] was 27%, the “% Mortality of mites 24 hours after infestation on day 1” value [1, 8] was 100% and the “% Mortality … on day 5” value [1, 8] was 100%. The “% Mortality … on day 8” value [1, 8] was 100%, the “% Mortality … on day 12” value [1, 8] was 100% and the “% Mortality … on day 15” value [1, 8] was 98%. For the same compound, the “% Mortality … on day 19” value [1, 8] was 59%, the “% Mortality … on day 22” value [1, 8] was 14% and the “Onset of action against red mites” value ([1]; all administered doses) was “fast onset of action”. For the same compound, the “Tolerance in the hens” value [2] was “well tolerated”, the “Duration of efficacy after first treatment administration” value (“Duration of efficacy” for short) ([3]; 0.25 mg/kg BW dose group (2 doses, 7 days apart)) was “up to 19 days” and the “Duration of efficacy” value ([3]; 0.5 mg/kg BW dose group (2 doses, 7 days apart)) was ≤ 22 days. The “Duration of efficacy” value ([3]; 1.0 mg/kg BW dose group (2 doses, 7 days apart)) was ≤ 22 days, the “Efficacy against O. sylviarum” value ([3]; 2 single doses of 0.25, 0.5, or 1 mg/kg BW, 7 days apart, oral) was “significant efficacy” and the “Reductions in mite vent counts, onset” value ([3]; all treated groups, beginning at day 1) was “statistically significant reductions”. For the same compound, the “Efficacy against Northern fowl mites (reduction in mite vent count)” value ([3]; all treated groups, for at least 19 days, untreated source birds in same pen) was > 90% and the “Residue levels in eggs” value [4] was “far below the MRL value”.
